In the CheMixHub ionic liquid set:

Test: xn = mol fraction of the nth substance listed
Details: 101.3 kPa

CCCC[N+](C)(CCCC)CCCC.[Cl-] + N[C@@H](Cc1ccccc1)C(=O)O + O
viscosity [mPa·s]
Details	293.15 K	298.15 K	303.15 K	308.15 K	313.15 K
x2 = 0, x1 = 0.00144	–	–	–	–	0.7
x2 = 0.0003636, x1 = 0.00072	0.99	0.89	0.76	0.67	–
x2 = 0.0003667, x1 = 0.001439	0.98	0.9	0.78	0.79	0.71
x2 = 0.000726, x1 = 0.0007198	1	0.9	0.77	0.68	–
x2 = 0.0007319, x1 = 0.001438	0.99	0.91	0.8	0.8	0.72
x2 = 0.00109, x1 = 0.0007195	1.02	0.92	0.78	0.69	–
x2 = 0.001099, x1 = 0.001438	1.01	0.92	0.81	0.81	0.74
x2 = 0.001452, x1 = 0.0007192	1.03	0.93	0.79	0.71	–
x2 = 0.001466, x1 = 0.001437	1.02	0.94	0.82	0.83	0.75
x2 = 0.001813, x1 = 0.000719	1.04	0.94	0.81	0.72	–
x2 = 0.001828, x1 = 0.001437	1.03	0.95	0.84	0.84	0.76
x2 = 0.002175, x1 = 0.0007187	1.06	0.96	0.82	0.73	–
x2 = 0.002194, x1 = 0.001436	1.05	0.96	0.85	0.85	0.78
x2 = 0.002538, x1 = 0.0007185	1.07	0.97	0.83	0.75	–
x2 = 0.002562, x1 = 0.001436	1.06	0.98	0.86	0.87	0.79
